According to patent publication US20260015574A1, “METHODS FOR SHORTENING LAG PHASE DURATION IN MICROORGANISMS” (YEDA RESEARCH AND DEVELOPMENT CO. LTD., priority 2022, published 2026):

Assays:
[1] = tested on: bacteria that are plant-associated; assay: Lag phase shortening in plant-associated bacteria; type: cell-based
Text: (§1) To explore whether lag phase shortening is a general mechanism among bacteria, the inventors tested the effect of methylated compounds in bacteria with different lifestyles. […] Since methylated compounds are a hallmark of photosynthesizing organisms, the inventors next tested a variety of bacteria that are plant-associated. […] Finally, to establish the prevalence of lag phase shortening among bacteria, the inventors tested the model bacterium E. coli. This bacterium is not commonly found associated with photosynthesizing organisms, and thus, is unlikely to respond to algal metabolites. […] The synchrony between specific compounds and different groups of bacteria may reflect the natural context […].

E. coli = assay: Lag phase shortening in E. coli; type: cell-based, Escherichia coli; details: treatment with algal metabolites
Text: as §1

[2] = tested on: Phaeobacter inhibens DSM 17395; assay: Growth / lag phase shortening assay of P. inhibens pure cultures with glucose; type: cell-based
Procedure: ASW was adjusted to pH 8 using HCl. If not otherwise stated, the medium was further supplemented with a source of carbon (glucose, 1 mM), nitrogen (NH4Cl, 5 mM), and sulfur (Na2SO4, 33 mM), referred to as ASW+CNS. […] A 96-well Tecan Infinite M Plex plate reader was used for high-resolution monitoring of bacterial growth dynamics at 30° C. An ImageStreamX Flow Imager system (Amnis) was used to characterize bacterial populations during the lag phase (FIG. 6). The growth of bacteria in co-culture with algae was monitored by counting colony forming units (CFU) on ½ YTSS agar plates. The growth of algae was monitored with a CellStream flow cytometer (Merck, Darmstadt, Germany).
To test whether methylated compounds affect the growth of bacteria, the inventors cultivated bacterial pure cultures with glucose as main growth substrate and supplemented the medium with the well-studied methylated compound dimethylsulfoniopropionate (DMSP). DMSP that is naturally produced by microalgae and found in detectable levels in seawater, is known to be metabolized by various bacteria. […] To quantify the lag phase shortening effect, the inventors calculated the Δlag time, which is the time difference between the commence of exponential growth in control cultures compared to treated cultures (FIG. 5B).
To reflect the natural low bacterial abundance in the oligotrophic ocean with low microalgal productivity, the current bacterial growth experiments were routinely initiated with an optical density (OD) of 0.00001. Such low initial ODs challenge the detection of cell divisions that occur prior to reaching an OD of at least 0.001, which is the theoretical limit of detection. To determine the actual length of the lag phase, the inventors analyzed bacterial cultures using imagining flow cytometry.

[3] = tested on: marine bacterium Vibrio sp.; assay: Lag phase shortening in Vibrio sp.; type: cell-based; details: 2 μM compound
Procedure: The bacterial strain Phaeobacter inhibens DSM 17395 was purchased from the German collection of microorganisms and cell cultures (DSMZ, Braunschweig, Germany) and stored at −80° C. with 20% glycerol. Routine cultivation of P. inhibens was conducted at 30° C. in artificial seawater medium (ASW) based on Goyet and Poisson (1989). The ASW medium contained mineral salts (NaCl, 409.41 mM; Na2SO4, 28.22 mM; KCl, 9.08 mM; KBr, 0.82 mM; NaF, 0.07 mM; Na2CO3, 0.20 mM; NaHCO3, 2 mM; MgCl2, 50.66 mM; SrCl2, 0.09 mM), L1 vitamins (thiamine HCl, 100 μg/L; biotin, 0.5 μg/L; vitamin B12, […]), L1 trace elements (Na2EDTA·2H2O, 4.36 mg/L; FeCl3·6H2O, 3.15 mg/L; MnCl2·4H2O, 178.1 μg/L; ZnSO4·7H2O, 23.0 μg/L; CoCl2·6H2O, 11.9 μg/L; CuSO4·5H2O, 2.5 μg/L; Na2MoO4·2H2O, 19.9 μg/L; H2SeO3, 1.29 μg/L; NiSO4·6H2O, 2.63 μg/L; Na3 VO4, 1.84 μg/L; K2CrO4, 1.94 μg/L), and L1 nutrients (NaNO3, 882 μM; NaH2PO4, 36.22 μM). ASW was adjusted to pH 8 using HCl. […] A 96-well Tecan Infinite M Plex plate reader was used for high-resolution monitoring of bacterial growth dynamics at 30° C. […] The growth of bacteria in co-culture with algae was monitored by counting colony forming units (CFU) on ½ YTSS agar plates. The growth of algae was monitored with a CellStream flow cytometer (Merck, Darmstadt, Germany). […]

[4] = artificial seawater medium, 1 mM glucose, micromolar DMSP

Structure (SMILES): C[S+](C)CCC(=O)[O-] [DMSP, dimethylsulfoniopropionate]
- lag phase shortening [1]: to slightly less extent
- lag phase shortening (E. coli): did not shorten the lag phase
- amount of DMSP per cell corresponding to the minimal effective concentration ([2]; 2 nM DMSP per 25,000 cells/mL): 80 amol
- lag phase shortening in the presence of TMP ([2]; 2 μM DMSP, culture with TMP supplemented with nucleotides): still elicited lag phase shortening
- growth rate [2, 4]: not affected
- lag time [2, 4]: the lag time was shortened
- lag phase shortening effect under salt stress ([2]; high salt conditions (FIG. 19A)): enhance the lag phase shortening effect
- growth of the bacterium ([2]; micromolar concentrations of DMSP, glucose as main growth substrate): stimulate the growth of the bacterium
- minimal DMSP concentration that triggered a significant lag phase shortening ([2]; per 25,000 cells/mL (OD 0.00001), glucose as main carbon source): 2 nM
- lag phase shortening effect under temperature stress ([2]; temperatures that deviate from the 30° C. optimum (FIG. 19B)): enhance the lag phase shortening effect
- lag phase shortening [3]: induction of the lag phase shortening
